Measurements as given in article PMC12372887, “Mechanism and cellular actions of the potent AMPK inhibitor BAY-3827” (Science Advances, 2025).

Tests used:
Experiment in all cases: Kinase panel (140 human kinases)
Type in all cases: biochemical
[1] = target: ABL (Homo sapiens, UniProt P00519)
How it was run: (§1)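 Radioactive [γ-^33P]ATP filter-binding assay, run in duplicate; compounds tested at 0.1 μM and at 1 μM (BAY-3827). ATP at 5, 20 or 50 μM, chosen at or below each enzyme's Km for ATP. Values are mean remaining kinase activity (%) with SD.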

[2] = target: ASK1 (Homo sapiens, UniProt Q99683)
How it was run: as §1

[3] = target: CHK1 (Homo sapiens, UniProt O14757)
How it was run: as §1

[4] = target: CHK2 (Homo sapiens, UniProt O96017)
How it was run: as §1

[5] = target: CLK2 (Homo sapiens, UniProt P49760)
How it was run: as §1

[6] = target: DAPK1 (Homo sapiens, UniProt P53355)
How it was run: as §1

[7] = target: DYRK1A (Homo sapiens, UniProt Q13627)
How it was run: as §1

[8] = target: DYRK3 (Homo sapiens, UniProt O43781)
How it was run: as §1

[9] = target: EF2K (Homo sapiens, UniProt O00418)
How it was run: as §1

[10] = target: EPH-A2 (Homo sapiens, UniProt P29317)
How it was run: as §1

[11] = target: EPH-B4 (Homo sapiens, UniProt P54760)
How it was run: as §1

[12] = target: ERK8 (Homo sapiens, UniProt Q8TD08)
How it was run: as §1

[13] = target: GSK3b (Homo sapiens, UniProt P49841)
How it was run: as §1

[14] = target: HIPK2 (Homo sapiens, UniProt Q9H2X6)
How it was run: as §1

[15] = target: IR (Homo sapiens, UniProt P06213)
Chain of IR (P06213 28-1382): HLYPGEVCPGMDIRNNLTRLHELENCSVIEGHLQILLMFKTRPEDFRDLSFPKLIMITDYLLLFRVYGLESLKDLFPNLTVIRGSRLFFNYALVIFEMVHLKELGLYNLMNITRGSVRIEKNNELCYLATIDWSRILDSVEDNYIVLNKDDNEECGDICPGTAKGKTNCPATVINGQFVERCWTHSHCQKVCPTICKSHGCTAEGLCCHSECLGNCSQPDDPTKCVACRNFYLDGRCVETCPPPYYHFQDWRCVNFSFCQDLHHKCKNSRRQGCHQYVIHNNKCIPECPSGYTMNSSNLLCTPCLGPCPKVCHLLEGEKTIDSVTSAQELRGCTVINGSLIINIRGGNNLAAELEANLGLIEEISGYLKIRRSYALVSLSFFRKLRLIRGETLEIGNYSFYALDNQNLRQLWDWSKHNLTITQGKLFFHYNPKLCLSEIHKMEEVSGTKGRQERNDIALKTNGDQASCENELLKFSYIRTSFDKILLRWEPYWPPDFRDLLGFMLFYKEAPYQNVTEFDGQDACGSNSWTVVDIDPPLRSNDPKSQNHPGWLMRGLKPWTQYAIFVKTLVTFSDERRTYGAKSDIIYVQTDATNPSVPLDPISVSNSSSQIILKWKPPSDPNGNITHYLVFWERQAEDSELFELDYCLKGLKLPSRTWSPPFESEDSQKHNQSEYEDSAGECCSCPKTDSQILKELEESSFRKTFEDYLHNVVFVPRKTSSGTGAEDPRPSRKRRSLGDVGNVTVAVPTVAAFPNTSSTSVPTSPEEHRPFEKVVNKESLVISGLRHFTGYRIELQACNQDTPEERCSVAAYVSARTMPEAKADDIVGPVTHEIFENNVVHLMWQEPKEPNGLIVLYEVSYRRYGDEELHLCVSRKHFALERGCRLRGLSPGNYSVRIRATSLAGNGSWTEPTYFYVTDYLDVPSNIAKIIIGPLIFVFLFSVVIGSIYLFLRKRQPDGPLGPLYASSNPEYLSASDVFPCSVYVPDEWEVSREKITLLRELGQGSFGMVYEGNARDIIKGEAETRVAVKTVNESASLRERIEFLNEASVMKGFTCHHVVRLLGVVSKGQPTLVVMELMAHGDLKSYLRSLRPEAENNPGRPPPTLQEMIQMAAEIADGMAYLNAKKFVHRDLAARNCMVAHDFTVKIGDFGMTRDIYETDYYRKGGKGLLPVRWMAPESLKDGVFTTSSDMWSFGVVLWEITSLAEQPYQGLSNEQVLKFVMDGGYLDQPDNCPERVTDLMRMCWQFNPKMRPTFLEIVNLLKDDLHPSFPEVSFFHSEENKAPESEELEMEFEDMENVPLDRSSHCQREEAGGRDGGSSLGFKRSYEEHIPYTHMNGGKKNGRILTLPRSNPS
How it was run: as §1

[16] = target: JAK3 (Homo sapiens, UniProt P52333)
How it was run: as §1

[17] = target: MAPKAP-K3 (Homo sapiens, UniProt Q16644)
How it was run: as §1

[18] = target: MARK1 (Homo sapiens, UniProt Q9P0L2)
How it was run: as §1

[19] = target: MSK1 (Homo sapiens, UniProt O75582)
Chain of MSK1 (O75582 whole entry): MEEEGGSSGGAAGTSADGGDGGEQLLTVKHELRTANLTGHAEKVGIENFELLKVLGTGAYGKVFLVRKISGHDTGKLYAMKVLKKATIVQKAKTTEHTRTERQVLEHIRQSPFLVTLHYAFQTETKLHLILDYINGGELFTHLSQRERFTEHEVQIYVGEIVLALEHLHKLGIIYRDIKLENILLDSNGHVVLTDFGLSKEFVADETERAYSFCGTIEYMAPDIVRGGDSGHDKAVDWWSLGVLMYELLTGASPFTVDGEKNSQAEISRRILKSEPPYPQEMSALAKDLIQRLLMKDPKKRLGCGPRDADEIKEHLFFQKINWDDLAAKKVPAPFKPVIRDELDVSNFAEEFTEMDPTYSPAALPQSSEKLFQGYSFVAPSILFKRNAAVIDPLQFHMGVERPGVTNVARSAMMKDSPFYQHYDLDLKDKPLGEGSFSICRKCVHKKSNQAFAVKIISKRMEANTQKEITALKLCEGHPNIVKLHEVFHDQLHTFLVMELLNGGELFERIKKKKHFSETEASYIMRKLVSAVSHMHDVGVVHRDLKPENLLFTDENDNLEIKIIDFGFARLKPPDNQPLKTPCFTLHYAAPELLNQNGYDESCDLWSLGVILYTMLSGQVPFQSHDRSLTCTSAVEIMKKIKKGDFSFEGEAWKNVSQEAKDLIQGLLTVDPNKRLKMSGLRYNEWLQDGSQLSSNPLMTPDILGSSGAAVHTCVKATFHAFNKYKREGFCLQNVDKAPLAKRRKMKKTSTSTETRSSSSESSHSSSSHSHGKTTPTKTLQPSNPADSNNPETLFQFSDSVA
How it was run: as §1

[20] = target: MST2 (Homo sapiens, UniProt Q13188)
How it was run: as §1

[21] = target: OSR1 (Homo sapiens, UniProt O95747)
How it was run: as §1

[22] = target: PAK2 (Homo sapiens, UniProt Q13177)
How it was run: as §1

[23] = target: PHK; conditions: 0.1 μM
How it was run: as §1

[24] = target: PINK (Tribolium castaneum, UniProt D6WMX4)
How it was run: as §1

[25] = target: PKCa (Homo sapiens, UniProt P17252)
How it was run: as §1

[26] = target: PKCγ (Homo sapiens, UniProt P05129)
How it was run: as §1

[27] = target: PLK1 (Homo sapiens, UniProt P53350)
How it was run: as §1

[28] = target: RIPK2 (Homo sapiens, UniProt O43353)
How it was run: as §1

[29] = target: RSK2 (Homo sapiens, UniProt P51812)
Chain of RSK2 (P51812 whole entry): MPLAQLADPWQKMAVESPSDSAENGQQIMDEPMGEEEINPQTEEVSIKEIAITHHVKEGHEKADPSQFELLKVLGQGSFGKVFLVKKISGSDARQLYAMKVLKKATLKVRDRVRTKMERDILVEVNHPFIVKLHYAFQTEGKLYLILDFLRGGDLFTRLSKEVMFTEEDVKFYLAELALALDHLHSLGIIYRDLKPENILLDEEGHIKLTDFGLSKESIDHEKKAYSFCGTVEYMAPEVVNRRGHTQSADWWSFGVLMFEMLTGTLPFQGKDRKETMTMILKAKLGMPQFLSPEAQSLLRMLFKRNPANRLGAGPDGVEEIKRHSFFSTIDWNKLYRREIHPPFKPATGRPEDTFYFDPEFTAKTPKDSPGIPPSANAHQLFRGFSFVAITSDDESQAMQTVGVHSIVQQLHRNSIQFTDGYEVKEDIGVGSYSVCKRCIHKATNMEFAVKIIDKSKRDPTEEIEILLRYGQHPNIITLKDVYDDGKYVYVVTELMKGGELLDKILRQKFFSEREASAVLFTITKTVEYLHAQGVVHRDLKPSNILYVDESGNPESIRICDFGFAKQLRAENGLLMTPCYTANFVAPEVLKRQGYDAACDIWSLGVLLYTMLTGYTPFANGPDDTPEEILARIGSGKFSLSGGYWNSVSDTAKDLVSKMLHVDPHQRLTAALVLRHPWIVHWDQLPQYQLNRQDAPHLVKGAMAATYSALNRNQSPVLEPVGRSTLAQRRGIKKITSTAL
How it was run: as §1

[30] = target: S6K1 (Homo sapiens, UniProt P23443)
How it was run: as §1

[31] = target: SYK (Homo sapiens, UniProt P43405)
How it was run: as §1

[32] = target: TTBK1 (Homo sapiens, UniProt Q5TCY1)
Chain of TTBK1 (Q5TCY1 whole entry): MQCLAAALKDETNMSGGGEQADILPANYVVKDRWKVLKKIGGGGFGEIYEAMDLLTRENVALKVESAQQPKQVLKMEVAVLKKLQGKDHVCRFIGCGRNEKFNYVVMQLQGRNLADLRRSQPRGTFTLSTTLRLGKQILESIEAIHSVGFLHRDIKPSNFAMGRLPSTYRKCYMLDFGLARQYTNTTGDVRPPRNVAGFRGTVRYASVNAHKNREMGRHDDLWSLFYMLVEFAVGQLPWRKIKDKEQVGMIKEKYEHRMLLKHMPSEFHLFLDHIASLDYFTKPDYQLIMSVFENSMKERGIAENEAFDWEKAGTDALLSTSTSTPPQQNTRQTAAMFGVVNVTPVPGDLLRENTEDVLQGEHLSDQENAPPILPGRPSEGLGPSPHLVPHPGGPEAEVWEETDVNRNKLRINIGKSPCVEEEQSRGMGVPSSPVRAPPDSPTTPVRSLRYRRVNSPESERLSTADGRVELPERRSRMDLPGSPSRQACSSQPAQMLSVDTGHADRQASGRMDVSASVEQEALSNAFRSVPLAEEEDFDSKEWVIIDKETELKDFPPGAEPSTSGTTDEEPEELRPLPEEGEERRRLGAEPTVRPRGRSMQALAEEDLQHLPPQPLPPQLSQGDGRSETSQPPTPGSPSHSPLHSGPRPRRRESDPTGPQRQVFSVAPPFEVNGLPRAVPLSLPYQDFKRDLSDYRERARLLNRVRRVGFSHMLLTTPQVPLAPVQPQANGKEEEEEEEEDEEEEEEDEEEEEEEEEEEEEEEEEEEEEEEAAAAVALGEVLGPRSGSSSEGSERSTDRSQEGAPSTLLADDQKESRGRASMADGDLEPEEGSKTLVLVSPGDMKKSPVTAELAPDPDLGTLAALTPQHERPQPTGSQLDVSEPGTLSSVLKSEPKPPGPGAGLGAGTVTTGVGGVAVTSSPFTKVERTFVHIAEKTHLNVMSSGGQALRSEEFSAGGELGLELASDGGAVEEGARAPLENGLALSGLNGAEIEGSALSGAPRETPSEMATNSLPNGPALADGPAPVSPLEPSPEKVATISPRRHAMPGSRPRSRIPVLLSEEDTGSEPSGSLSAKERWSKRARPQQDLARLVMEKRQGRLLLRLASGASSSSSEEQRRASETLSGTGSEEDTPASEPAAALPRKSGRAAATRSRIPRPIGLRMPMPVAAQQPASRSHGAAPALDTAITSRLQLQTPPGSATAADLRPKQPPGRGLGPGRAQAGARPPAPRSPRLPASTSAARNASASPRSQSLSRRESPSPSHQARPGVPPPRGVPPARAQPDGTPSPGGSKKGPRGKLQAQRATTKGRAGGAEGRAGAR
How it was run: as §1

[33] = target: YES1 (Homo sapiens, UniProt P07947)
Chain of YES1 (P07947 whole entry): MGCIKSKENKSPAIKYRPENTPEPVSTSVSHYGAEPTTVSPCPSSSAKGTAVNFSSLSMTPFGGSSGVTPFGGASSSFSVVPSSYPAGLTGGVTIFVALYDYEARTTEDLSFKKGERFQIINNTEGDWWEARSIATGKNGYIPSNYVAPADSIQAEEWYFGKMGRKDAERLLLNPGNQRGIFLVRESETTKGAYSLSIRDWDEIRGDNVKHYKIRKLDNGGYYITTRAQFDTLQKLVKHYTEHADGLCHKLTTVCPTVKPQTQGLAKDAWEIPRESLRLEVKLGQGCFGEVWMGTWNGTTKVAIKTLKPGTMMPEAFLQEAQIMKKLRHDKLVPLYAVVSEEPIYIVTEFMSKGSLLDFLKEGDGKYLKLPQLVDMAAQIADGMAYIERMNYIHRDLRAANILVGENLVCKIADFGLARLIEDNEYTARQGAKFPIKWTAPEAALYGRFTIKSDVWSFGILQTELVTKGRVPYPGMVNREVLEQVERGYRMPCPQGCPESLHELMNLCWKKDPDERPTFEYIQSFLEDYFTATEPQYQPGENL
How it was run: as §1

[34] = target: ZAP70 (Homo sapiens, UniProt P43403)
How it was run: as §1

[35] = 1 μM, cross-referenced with screen data of ref 37, read-out: activity remaining after treatment

Which remaining activity at 0.1 µM [1] does the source give for CC1=C(C#N)C(c2ccc3c(c2)c(NC(=O)c2ccccc2C)nn3C)C(C#N)=C(C)N1 [BAY-974, N-[5-(3,5-dicyano-2,6-dimethyl-1,4-dihydropyridin-4-yl)-1-methylindazol-3-yl]-2-methylbenzamide] here?
Its remaining activity at 0.1 µM is 59%.

What about the remaining activity at 0.1 µM [2] of the same molecule?
Its remaining activity at 0.1 µM is 83%.

And the remaining activity at 0.1 µM [3]?
The remaining activity at 0.1 µM was 78%.

What about the remaining activity at 0.1 µM [4] of the same molecule?
The remaining activity at 0.1 µM was 87%.

What about the remaining activity at 0.1 µM [5] of the same molecule?
Its remaining activity at 0.1 µM is 93%.

What about the remaining activity at 0.1 µM [6] of the same molecule?
The remaining activity at 0.1 µM was 109%.

And the remaining activity at 0.1 µM [7]?
Its remaining activity at 0.1 µM is 101%.

What about the remaining activity at 0.1 µM [8] of the same molecule?
Its remaining activity at 0.1 µM is 83%.

And the remaining activity at 0.1 µM [9]?
The remaining activity at 0.1 µM was 119%.

What about the remaining activity at 0.1 µM [10] of the same molecule?
Its remaining activity at 0.1 µM is 109%.

And the remaining activity at 0.1 µM [11]?
Its remaining activity at 0.1 µM is 116%.

And the remaining activity at 0.1 µM [12]?
The remaining activity at 0.1 µM was 91%.

And the remaining activity at 0.1 µM [13]?
Its remaining activity at 0.1 µM is 93%.

And the remaining activity at 0.1 µM [14]?
Its remaining activity at 0.1 µM is 108%.

What about the remaining activity at 0.1 µM [15] of the same molecule?
The remaining activity at 0.1 µM was 81%.

And the remaining activity at 0.1 µM [16]?
The remaining activity at 0.1 µM was 106%.

And the remaining activity at 0.1 µM [17]?
The remaining activity at 0.1 µM was 81%.

And the remaining activity at 0.1 µM [18]?
The remaining activity at 0.1 µM was 93%.

And the remaining activity at 0.1 µM [19]?
The remaining activity at 0.1 µM was 100%.

What about the remaining activity at 0.1 µM [20] of the same molecule?
Its remaining activity at 0.1 µM is 94%.

What about the remaining activity at 0.1 µM [21] of the same molecule?
Its remaining activity at 0.1 µM is 109%.

What about the remaining activity at 0.1 µM [22] of the same molecule?
The remaining activity at 0.1 µM was 88%.

And the “Kinase activity remaining (%)” value [23]?
The value was 120%.

And the remaining activity at 0.1 µM [24]?
Its remaining activity at 0.1 µM is 95%.

And the remaining activity at 0.1 µM [25]?
Its remaining activity at 0.1 µM is 110%.

What about the remaining activity at 0.1 µM [26] of the same molecule?
Its remaining activity at 0.1 µM is 115%.

What about the remaining activity at 0.1 µM [27] of the same molecule?
Its remaining activity at 0.1 µM is 105%.

And the remaining activity at 0.1 µM [28]?
Its remaining activity at 0.1 µM is 108%.

And the remaining activity at 0.1 µM [29]?
The remaining activity at 0.1 µM was 117%.

What about the remaining activity at 0.1 µM [30] of the same molecule?
The remaining activity at 0.1 µM was 97%.

And the inhibition at 0.1 µM [31]?
The inhibition at 0.1 µM was 55 to 90%.

And the remaining activity at 0.1 µM [32]?
The remaining activity at 0.1 µM was 104%.

And the inhibition at 0.1 µM [33]?
Its inhibition at 0.1 µM is 55 to 90%.

And the remaining activity at 0.1 µM [33]?
Its remaining activity at 0.1 µM is no more than 50%.

What about the remaining activity at 0.1 µM [34] of the same molecule?
The remaining activity at 0.1 µM was 94%.

How did the remaining activity at 0.1 µM [1] turn out when CCc1ccccc1C(=O)Nc1n[nH]c2c(C)c(F)c(C3C(C#N)=C(C)N(C)C(C)=C3C#N)cc12 [BAY-3827, N-[5-(3,5-dicyano-1,2,6-trimethyl-4H-pyridin-4-yl)-6-fluoro-7-methyl-1H-indazol-3-yl]-2-ethylbenzamide] was run?
The remaining activity at 0.1 µM was 107%.

And the remaining activity at 1 µM ([1]; 1 μM, ABL1, cross-referenced with screen data of ref 37, read-out: activity remaining after treatment)?
The remaining activity at 1 µM was no less than 99%.

What about the remaining activity at 0.1 µM [2] of the same molecule?
Its remaining activity at 0.1 µM is 95%.

And the remaining activity at 0.1 µM [3]?
Its remaining activity at 0.1 µM is 66%.

What about the remaining activity at 0.1 µM [4] of the same molecule?
The remaining activity at 0.1 µM was 93%.

And the remaining activity at 0.1 µM [5]?
Its remaining activity at 0.1 µM is 87%.

And the remaining activity at 0.1 µM [6]?
The remaining activity at 0.1 µM was 94%.

And the remaining activity at 0.1 µM [7]?
The remaining activity at 0.1 µM was 96%.

What about the remaining activity at 0.1 µM [8] of the same molecule?
Its remaining activity at 0.1 µM is 97%.

And the remaining activity at 0.1 µM [9]?
Its remaining activity at 0.1 µM is 91%.

And the remaining activity at 0.1 µM [10]?
Its remaining activity at 0.1 µM is 114%.

What about the remaining activity at 0.1 µM [11] of the same molecule?
Its remaining activity at 0.1 µM is 109%.

What about the remaining activity at 0.1 µM [12] of the same molecule?
Its remaining activity at 0.1 µM is 66%.

What about the remaining activity at 0.1 µM [13] of the same molecule?
The remaining activity at 0.1 µM was 74%.

And the remaining activity at 0.1 µM [14]?
Its remaining activity at 0.1 µM is 121%.

What about the remaining activity at 0.1 µM [15] of the same molecule?
The remaining activity at 0.1 µM was 102%.

What about the remaining activity at 1 µM ([15]; 1 μM, INSR, cross-referenced with screen data of ref 37, read-out: activity remaining after treatment) of the same molecule?
The remaining activity at 1 µM was no less than 99%.

And the remaining activity at 0.1 µM [16]?
The remaining activity at 0.1 µM was 90%.

And the remaining activity at 0.1 µM [17]?
Its remaining activity at 0.1 µM is 101%.

What about the remaining activity at 0.1 µM [18] of the same molecule?
The remaining activity at 0.1 µM was 82%.

And the remaining activity at 0.1 µM [19]?
The remaining activity at 0.1 µM was 56%.

And the remaining activity at 1 µM [19, 35]?
The remaining activity at 1 µM was no more than 50%.

And the remaining activity at 0.1 µM [20]?
Its remaining activity at 0.1 µM is 85%.

And the remaining activity at 0.1 µM [21]?
The remaining activity at 0.1 µM was 111%.

What about the remaining activity at 0.1 µM [22] of the same molecule?
The remaining activity at 0.1 µM was 88%.

And the inhibition of kinase [23]?
Its inhibition of kinase is 80 to 85%.

And the remaining activity at 0.1 µM [24]?
The remaining activity at 0.1 µM was 90%.

What about the remaining activity at 0.1 µM [25] of the same molecule?
The remaining activity at 0.1 µM was 90%.

What about the remaining activity at 0.1 µM [26] of the same molecule?
Its remaining activity at 0.1 µM is 94%.

And the remaining activity at 0.1 µM [27]?
The remaining activity at 0.1 µM was 97%.

What about the remaining activity at 0.1 µM [28] of the same molecule?
Its remaining activity at 0.1 µM is 102%.

And the remaining activity at 0.1 µM [29]?
Its remaining activity at 0.1 µM is 90%.

And the remaining activity at 1 µM [29, 35]?
Its remaining activity at 1 µM is no more than 50%.

And the remaining activity at 0.1 µM [30]?
Its remaining activity at 0.1 µM is 87%.

What about the remaining activity at 0.1 µM [31] of the same molecule?
The remaining activity at 0.1 µM was 91%.

And the remaining activity at 0.1 µM [32]?
Its remaining activity at 0.1 µM is 101%.

And the remaining activity at 1 µM [32, 35]?
Its remaining activity at 1 µM is no less than 99%.

What about the remaining activity at 0.1 µM [33] of the same molecule?
Its remaining activity at 0.1 µM is 98%.

What about the remaining activity at 0.1 µM [34] of the same molecule?
Its remaining activity at 0.1 µM is 96%.
